Experimental data taken from ChEMBL document CHEMBL1153515 (Bioorg Med Chem, 2009).

Tests used:
Format in all cases: functional
[1] = molecular target: 5-hydroxytryptamine receptor 3A (Mus musculus, UniProt P23979, Y152A); assay: Agonist activity at mouse 5HT3A Y153A receptor mutant expressed in Xenopus oocyte by two-electrode voltage patch method
[2] = molecular target: 5-hydroxytryptamine receptor 3A (Mus musculus, UniProt P23979, W182F); assay: Agonist activity at mouse 5HT3A W183F receptor mutant expressed in Xenopus oocyte by two-electrode voltage patch method
5-hydroxytryptamine receptor 3A (Mus musculus, UniProt P23979, W182F), sequence (P23979 24-489 W183F limits assumed): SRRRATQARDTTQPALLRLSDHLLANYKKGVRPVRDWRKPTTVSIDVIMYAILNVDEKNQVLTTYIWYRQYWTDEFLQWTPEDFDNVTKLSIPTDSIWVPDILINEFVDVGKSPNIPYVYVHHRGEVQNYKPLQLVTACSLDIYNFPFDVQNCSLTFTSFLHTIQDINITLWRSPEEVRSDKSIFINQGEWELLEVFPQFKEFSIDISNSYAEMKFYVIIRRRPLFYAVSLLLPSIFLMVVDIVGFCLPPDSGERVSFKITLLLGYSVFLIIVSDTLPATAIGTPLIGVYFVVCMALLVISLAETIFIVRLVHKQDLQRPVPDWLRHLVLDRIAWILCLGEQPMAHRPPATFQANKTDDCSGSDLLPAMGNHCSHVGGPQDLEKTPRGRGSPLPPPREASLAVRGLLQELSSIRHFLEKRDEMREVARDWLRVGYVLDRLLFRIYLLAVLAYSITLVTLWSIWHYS

[3] = molecular target: T1, 5-hydroxytryptamine receptor 3A (Mus musculus, UniProt P23979); assay: Agonist activity at wild type mouse 5HT3A receptor expressed in Xenopus oocyte by two-electrode voltage patch clamp method
T1 sequence (P23979 whole entry): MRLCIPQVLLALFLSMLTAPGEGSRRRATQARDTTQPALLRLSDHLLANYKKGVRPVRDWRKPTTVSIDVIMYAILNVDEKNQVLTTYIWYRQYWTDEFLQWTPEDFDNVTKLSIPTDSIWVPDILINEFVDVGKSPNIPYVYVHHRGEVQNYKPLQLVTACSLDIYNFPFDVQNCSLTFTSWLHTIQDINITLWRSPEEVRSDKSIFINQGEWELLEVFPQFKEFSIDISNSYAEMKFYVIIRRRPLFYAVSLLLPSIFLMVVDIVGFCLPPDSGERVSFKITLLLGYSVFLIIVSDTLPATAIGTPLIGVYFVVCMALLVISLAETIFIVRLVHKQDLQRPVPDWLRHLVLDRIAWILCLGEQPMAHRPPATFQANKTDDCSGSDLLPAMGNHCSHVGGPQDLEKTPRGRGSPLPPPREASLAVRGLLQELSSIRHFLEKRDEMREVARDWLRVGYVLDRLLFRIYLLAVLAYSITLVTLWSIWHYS

[4] = molecular target: 5-hydroxytryptamine receptor 3A (Mus musculus, UniProt P23979, I189V); assay: Agonist activity at mouse 5HT3A I190V receptor mutant expressed in Xenopus oocyte by two-electrode voltage patch method
5-hydroxytryptamine receptor 3A (Mus musculus, UniProt P23979, I189V), sequence (P23979 24-489 I190V limits assumed): as the sequence (P23979 24-489 W183F limits assumed) above, with F160W, I167V counted along it

[5] = molecular target: 5-hydroxytryptamine receptor 3A (Mus musculus, UniProt P23979, Q187A); assay: Agonist activity at mouse 5HT3A Q188A receptor mutant expressed in Xenopus oocyte by two-electrode voltage patch method
5-hydroxytryptamine receptor 3A (Mus musculus, UniProt P23979, Q187A), sequence (P23979 24-489 Q188A limits assumed): as the sequence (P23979 24-489 W183F limits assumed) above, with F160W, Q165A counted along it

[6] = molecular target: 5-hydroxytryptamine receptor 3A (Mus musculus, UniProt P23979, S181A); assay: Agonist activity at mouse 5HT3A S182A receptor mutant expressed in Xenopus oocyte by two-electrode voltage patch method
5-hydroxytryptamine receptor 3A (Mus musculus, UniProt P23979, S181A), sequence (P23979 24-489 S182A limits assumed): as the sequence (P23979 24-489 W183F limits assumed) above, with S159A, F160W counted along it

[7] = molecular target: 5-hydroxytryptamine receptor 3A (Mus musculus, UniProt P23979, Y142F); assay: Agonist activity at mouse 5HT3A Y143F receptor mutant expressed in Xenopus oocyte by two-electrode voltage patch method
5-hydroxytryptamine receptor 3A (Mus musculus, UniProt P23979, Y142F), sequence (P23979 24-489 Y143F limits assumed): as the sequence (P23979 24-489 W183F limits assumed) above, with Y120F, F160W counted along it

[8] = molecular target: 5-hydroxytryptamine receptor 3A (Mus musculus, UniProt P23979, L183V); assay: Agonist activity at mouse 5HT3A L184V receptor mutant expressed in Xenopus oocyte by two-electrode voltage patch method
5-hydroxytryptamine receptor 3A (Mus musculus, UniProt P23979, L183V), sequence (P23979 24-489 L184V limits assumed): as the sequence (P23979 24-489 W183F limits assumed) above, with F160W, L161V counted along it

[9] = molecular target: 5-hydroxytryptamine receptor 3A (Mus musculus, UniProt P23979, Y152F); assay: Agonist activity at mouse 5HT3A Y153F receptor mutant expressed in Xenopus oocyte by two-electrode voltage patch method
5-hydroxytryptamine receptor 3A (Mus musculus, UniProt P23979, Y152F), sequence (P23979 24-489 Y153F limits assumed): as the sequence (P23979 24-489 W183F limits assumed) above, with Y130F, F160W counted along it

[10] = molecular target: 5-hydroxytryptamine receptor 3A (Mus musculus, UniProt P23979, H184F); assay: Agonist activity at mouse 5HT3A H185F receptor mutant expressed in Xenopus oocyte by two-electrode voltage patch method
5-hydroxytryptamine receptor 3A (Mus musculus, UniProt P23979, H184F), sequence (P23979 24-489 H185F limits assumed): as the sequence (P23979 24-489 W183F limits assumed) above, with F160W, H162F counted along it

[11] = molecular target: 5-hydroxytryptamine receptor 3A (Mus musculus, UniProt P23979, H184Y); assay: Agonist activity at mouse 5HT3A H185Y receptor mutant expressed in Xenopus oocyte by two-electrode voltage patch method
5-hydroxytryptamine receptor 3A (Mus musculus, UniProt P23979, H184Y), sequence (P23979 24-489 H185Y limits assumed): as the sequence (P23979 24-489 W183F limits assumed) above, with F160W, H162Y counted along it

[12] = molecular target: 5-hydroxytryptamine receptor 3A (Mus musculus, UniProt P23979, T180A); assay: Agonist activity at mouse 5HT3A T181A receptor mutant expressed in Xenopus oocyte by two-electrode voltage patch method
5-hydroxytryptamine receptor 3A (Mus musculus, UniProt P23979, T180A), sequence (P23979 24-489 T181A limits assumed): as the sequence (P23979 24-489 W183F limits assumed) above, with T158A, F160W counted along it

[13] = molecular target: 5-hydroxytryptamine receptor 3A (Mus musculus, UniProt P23979, I186A); assay: Agonist activity at mouse 5HT3A I187A receptor mutant expressed in Xenopus oocyte by two-electrode voltage patch method
5-hydroxytryptamine receptor 3A (Mus musculus, UniProt P23979, I186A), sequence (P23979 24-489 I209A limits assumed): as the sequence (P23979 24-489 W183F limits assumed) above, with F160W, I186A counted along it

[14] = molecular target: 5-hydroxytryptamine receptor 3A (Mus musculus, UniProt P23979, T185A); assay: Agonist activity at mouse 5HT3A T186A receptor mutant expressed in Xenopus oocyte by two-electrode voltage patch method
5-hydroxytryptamine receptor 3A (Mus musculus, UniProt P23979, T185A), sequence (P23979 24-489 T186A limits assumed): as the sequence (P23979 24-489 W183F limits assumed) above, with F160W, T163A counted along it

5-hydroxytryptamine receptor 3A (Mus musculus, UniProt P23979, Y152A), sequence (P23979 24-489 Y153A limits assumed): as the sequence (P23979 24-489 W183F limits assumed) above, with Y130A, F160W counted along it

## N=C(N)NC(=N)Nc1cccc(Cl)c1
[1]
  EC50: 7.6 µM
[2]
  EC50: 16 µM
[3]
  EC50: 0.8 µM
[4]
  EC50: 2 µM
[5]
  EC50: 2.3 µM
[6]
  EC50: 27 µM
[7]
  EC50: 5.3 µM
[8]
  EC50: 5.1 µM
[9]
  EC50: 2.2 µM
[10]
  EC50: 2.5 µM
[11]
  EC50: 5.4 µM
[12]
  EC50: 2.2 µM
[13]
  EC50: 52 µM
[14]
  EC50: 1.7 µM
